Measurements: US8048862B2, “Macrocyclic inhibitors of hepatitis C virus replication” (priority 2008, dated 2011)
pEC50, pIC50: −log10 of the molar value.

How the values were obtained:
[1] = target: NS3/NS4 complexes (Hepatitis C virus genotype 1a, UniProt P27958); assay: NS3/NS4 inhibition activity (IC50); type: biochemical; settings: Table 2, read-out: IC50
How it was run: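 NS3/NS4 complexes were formed and compound inhibitory concentrations determined at ambient temperature (23 °C). The buffer contained 50 mM Tris-HCl pH 7.5, 15% glycerol, 0.6 mM LDAO, 25 μM NS4A peptide and 10 mM DTT.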

[2] = test system: hepatitis C replicon; assay: hepatitis C replicon EC50; type: cell-based; settings: Hepatitis C virus; Table 2; hepatitis C replicon; read-out: EC50
Description: NS3-NS4 inhibition activity can be determined using known assay methods.

NS3/NS4 complexes, sequence (P27958 1027-1657): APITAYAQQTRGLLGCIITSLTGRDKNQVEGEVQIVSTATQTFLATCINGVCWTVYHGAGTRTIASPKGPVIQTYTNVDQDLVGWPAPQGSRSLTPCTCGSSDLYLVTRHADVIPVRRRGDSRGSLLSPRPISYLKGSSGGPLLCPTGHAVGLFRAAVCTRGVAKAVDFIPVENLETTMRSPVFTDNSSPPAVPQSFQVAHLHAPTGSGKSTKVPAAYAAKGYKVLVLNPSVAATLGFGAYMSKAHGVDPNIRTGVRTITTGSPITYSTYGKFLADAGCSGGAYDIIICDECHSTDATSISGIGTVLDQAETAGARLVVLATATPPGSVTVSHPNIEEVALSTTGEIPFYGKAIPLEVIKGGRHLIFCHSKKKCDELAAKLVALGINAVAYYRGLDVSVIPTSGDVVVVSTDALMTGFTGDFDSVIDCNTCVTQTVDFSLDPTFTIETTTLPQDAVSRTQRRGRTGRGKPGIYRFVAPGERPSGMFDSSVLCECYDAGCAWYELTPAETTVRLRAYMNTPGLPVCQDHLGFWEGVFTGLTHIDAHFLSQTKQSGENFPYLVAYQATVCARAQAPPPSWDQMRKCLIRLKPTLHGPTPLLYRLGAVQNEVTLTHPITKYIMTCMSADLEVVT
NS3/NS4 complexes, sequence (P27958 1658-1711): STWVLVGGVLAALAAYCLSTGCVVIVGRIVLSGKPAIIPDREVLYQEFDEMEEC

| Compound | pIC50 [1] | pEC50 [2] |
| --- | --- | --- |
| COc1ccc2c(O[C@@H]3C[C@H]4C(=O)N[C@]5(C(=O)NS(=O)(=O)C6(C)CC6)C[C@H]5/C=C\CCCCC[C@H](Nc5cc(F)cc(F)c5)C(=O)N4C3)cc(-c3nc(C(C)C)cs3)nc2c1C [Compound 363] | > 8.00 | 7.12 to 8.00 |
| CC(C)n1c(O[C@@H]2C[C@H]3C(=O)N[C@]4(C(=O)NS(=O)(=O)C5(C)CC5)C[C@H]4/C=C\CCCCC[C@H](Nc4ccccc4)C(=O)N3C2)nc2ccccc21 [Compound 365] | > 8.00 | > 8.00 |
| COc1ccc2c(O[C@@H]3C[C@H]4C(=O)N[C@]5(C(=O)NS(=O)(=O)C6CC6)C[C@H]5/C=C\CCCCC[C@H](Nc5cccc(C(F)(F)F)c5)C(=O)N4C3)cc(-c3nc(C(C)C)cs3)nc2c1C [Compound 369] | > 8.00 | > 8.00 |
| COc1ccc2c(O[C@@H]3C[C@H]4C(=O)N[C@]5(C(=O)NS(=O)(=O)C6(C)CC6)C[C@H]5/C=C\CCCCC[C@H](Nc5ccc(F)c(C(F)(F)F)c5)C(=O)N4C3)cc(-c3nc(C(C)C)cs3)nc2c1C [Compound 374] | > 8.00 | > 8.00 |
| O=C1N[C@]2(C(=O)NS(=O)(=O)C3CC3)C[C@H]2/C=C\CCCCC[C@H](Nc2ccc(F)c(C(F)(F)F)c2)C(=O)N2C[C@H](Oc3nccc4ccccc34)C[C@@H]12 [Compound 375] | > 8.00 | > 8.00 |
| CC(C)n1c(O[C@@H]2C[C@H]3C(=O)N[C@]4(C(=O)NS(=O)(=O)C5(C)CC5)C[C@H]4/C=C\CCCCC[C@H](Nc4cc(F)cc(C(F)(F)F)c4)C(=O)N3C2)nc2ccccc21 [Compound 376] | > 8.00 | > 8.00 |
| COc1ccc2c(O[C@@H]3C[C@H]4C(=O)N[C@]5(C(=O)NS(=O)(=O)C6CC6)C[C@H]5/C=C\CCCCC[C@H](Nc5cccc(OC(F)(F)F)c5)C(=O)N4C3)cc(-c3nc(C(C)C)cs3)nc2c1C [Compound 377] | > 8.00 | > 8.00 |
| COc1ccc2c(O[C@@H]3C[C@H]4C(=O)N[C@]5(C(=O)NS(=O)(=O)C6(C)CC6)C[C@H]5/C=C\CCCCC[C@H](Nc5cccc(OC(F)(F)F)c5)C(=O)N4C3)cc(-c3nc(C(C)C)cs3)nc2c1C [Compound 378] | > 8.00 | > 8.00 |
| COc1ccc2c(O[C@@H]3C[C@H]4C(=O)N[C@]5(C(=O)NS(=O)(=O)C6(C)CC6)C[C@H]5/C=C\CCCCC[C@H](Nc5nc6ccccc6o5)C(=O)N4C3)cc(-c3nc(C(C)C)cs3)nc2c1C [Compound 379] | > 8.00 | > 8.00 |
| CC1(S(=O)(=O)NC(=O)[C@@]23C[C@H]2/C=C\CCCCC[C@H](Nc2nc4ccccc4o2)C(=O)N2C[C@H](Oc4nccc5ccccc45)C[C@H]2C(=O)N3)CC1 [Compound 380] | > 8.00 | 7.12 to 8.00 |
| CC1(S(=O)(=O)NC(=O)[C@@]23C[C@H]2/C=C\CCCCC[C@H](Nc2ccc(F)c(F)c2)C(=O)N2C[C@H](Oc4nccc5ccccc45)C[C@H]2C(=O)N3)CC1 [Compound 381] | > 8.00 | 7.12 to 8.00 |
| CCn1c(O[C@@H]2C[C@H]3C(=O)N[C@]4(C(=O)NS(=O)(=O)C5CC5)C[C@H]4/C=C\CCCCC[C@H](Nc4cc(F)cc(C(F)(F)F)c4)C(=O)N3C2)nc2ccccc21 [Compound 388] | > 8.00 | 7.12 to 8.00 |
| CC(C)n1c(O[C@@H]2C[C@H]3C(=O)N[C@]4(C(=O)NS(=O)(=O)N(C)C)C[C@H]4/C=C\CCCCC[C@H](Nc4cc(F)cc(C(F)(F)F)c4)C(=O)N3C2)nc2ccccc21 [Compound 391] | > 8.00 | 7.12 to 8.00 |
| COc1ccc2c(O[C@@H]3C[C@H]4C(=O)N[C@]5(C(=O)NS(=O)(=O)C6(C)CC6)C[C@H]5/C=C\CCCCC[C@H](Nc5cccc(OC(F)(F)F)c5)C(=O)N4C3)cc(-c3ccccc3)nc2c1 [Compound 392] | > 8.00 | > 8.00 |
| CC(C)n1c(O[C@@H]2C[C@H]3C(=O)N[C@]4(C(=O)NS(=O)(=O)C5CC5)C[C@H]4/C=C\CCCCC[C@H](Nc4cc(F)cc(C(F)(F)F)c4)C(=O)N3C2)nc2ccccc21 [Compound 393] | > 8.00 | 7.12 to 8.00 |
| CCn1c(O[C@@H]2C[C@H]3C(=O)N[C@]4(C(=O)NS(=O)(=O)C5(C)CC5)C[C@H]4/C=C\CCCCC[C@H](Nc4ccccc4)C(=O)N3C2)nc2ccccc21 [Compound 395] | > 8.00 | > 8.00 |
| CC1(S(=O)(=O)NC(=O)[C@@]23C[C@H]2/C=C\CCCCC[C@H](Nc2cc(F)cc(C(F)(F)F)c2)C(=O)N2C[C@H](Oc4nc(-c5ccccc5)cs4)C[C@H]2C(=O)N3)CC1 [Compound 396] | > 8.00 | < 6.30 |
| CC(C)(C)Cn1c(O[C@@H]2C[C@H]3C(=O)N[C@]4(C(=O)NS(=O)(=O)C5(C)CC5)C[C@H]4/C=C\CCCCC[C@H](Nc4cc(F)cc(C(F)(F)F)c4)C(=O)N3C2)nc2ccccc21 [Compound 401] | > 8.00 | 6.30 to 7.12 |
| CC(C)Cn1c(O[C@@H]2C[C@H]3C(=O)N[C@]4(C(=O)NS(=O)(=O)C5(C)CC5)C[C@H]4/C=C\CCCCC[C@H](Nc4cc(F)cc(C(F)(F)F)c4)C(=O)N3C2)nc2ccccc21 [Compound 402] | > 8.00 | 7.12 to 8.00 |
| COc1ccc2c(O[C@@H]3C[C@H]4C(=O)N[C@]5(C(=O)NS(=O)(=O)C6CC6)C[C@H]5/C=C\CCCCC[C@H](Nc5ccccc5)C(=O)N4C3)cc(-c3nc(C(C)C)cs3)nc2c1C [Compound 407] | > 8.00 | > 8.00 |
| COc1ccc2c(O[C@@H]3C[C@H]4C(=O)N[C@]5(C(=O)NS(=O)(=O)C6CC6)C[C@H]5/C=C\CCCCC[C@H](Nc5ccc(F)cc5)C(=O)N4C3)cc(-c3nc(C(C)C)cs3)nc2c1C [Compound 409] | > 8.00 | > 8.00 |
| COc1ccc2c(O[C@@H]3C[C@H]4C(=O)N[C@]5(C(=O)NS(=O)(=O)C6CC6)C[C@H]5/C=C\CCCCC[C@H](Nc5cccc(F)c5)C(=O)N4C3)cc(-c3nc(C(C)C)cs3)nc2c1C [Compound 411] | > 8.00 | > 8.00 |
| COc1ccc2c(O[C@@H]3C[C@H]4C(=O)N[C@]5(C(=O)NS(=O)(=O)N(C)C)C[C@H]5/C=C\CCCCC[C@H](Nc5ccccc5)C(=O)N4C3)cc(-c3nc(C(C)C)cs3)nc2c1C [Compound 412] | > 8.00 | > 8.00 |
| COc1ccc2c(O[C@@H]3C[C@H]4C(=O)N[C@]5(C(=O)NS(=O)(=O)N(C)C)C[C@H]5/C=C\CCCCC[C@H](Nc5ccc(F)cc5)C(=O)N4C3)cc(-c3nc(C(C)C)cs3)nc2c1C [Compound 415] | > 8.00 | > 8.00 |
| COc1ccc2c(O[C@@H]3C[C@H]4C(=O)N[C@]5(C(=O)NS(=O)(=O)N(C)C)C[C@H]5/C=C\CCCCC[C@H](Nc5cccc(F)c5)C(=O)N4C3)cc(-c3nc(C(C)C)cs3)nc2c1C [Compound 417] | > 8.00 | > 8.00 |
| COc1ccc2c(O[C@@H]3C[C@H]4C(=O)N[C@]5(C(=O)NS(=O)(=O)C6CC6)C[C@H]5/C=C\CCCCC[C@H](Nc5cc(F)cc(C(F)(F)F)c5)C(=O)N4C3)cc(-c3nc(C(C)C)cs3)nc2c1C [Compound 439] | > 8.00 | > 8.00 |
| CC1(S(=O)(=O)NC(=O)[C@@]23C[C@H]2/C=C\CCCCC[C@H](Nc2cccc(OC(F)(F)F)c2)C(=O)N2C[C@H](Oc4nccc5ccccc45)C[C@H]2C(=O)N3)CC1 [Compound 444] | > 8.00 | 7.12 to 8.00 |
| COc1ccc2c(O[C@@H]3C[C@H]4C(=O)N[C@]5(C(=O)NS(=O)(=O)C6(C)CC6)C[C@H]5/C=C\CCCCC[C@H](Nc5ccc(C(F)(F)F)cc5)C(=O)N4C3)cc(-c3nc(C(C)C)cs3)nc2c1C [Compound 445] | > 8.00 | > 8.00 |
